Source: US12441768B2, “Compositions and methods for treating endometriosis” (EndoMet Biosciences, Inc., priority 2018, dated 2025)
Where a SMILES comes first, the peptide text is derived from it.

Legend:
[1] = target: T1, β-catenin (Homo sapiens, UniProt P35222); test: KD50 measurement using competitive fluorescence polarization (FP) with labelled TCF4; format: binding; conditions: fluorescence polarization, β-catenin; for Kd: read-out: β-Cat FP KD
T1 sequence (P35222 1-781): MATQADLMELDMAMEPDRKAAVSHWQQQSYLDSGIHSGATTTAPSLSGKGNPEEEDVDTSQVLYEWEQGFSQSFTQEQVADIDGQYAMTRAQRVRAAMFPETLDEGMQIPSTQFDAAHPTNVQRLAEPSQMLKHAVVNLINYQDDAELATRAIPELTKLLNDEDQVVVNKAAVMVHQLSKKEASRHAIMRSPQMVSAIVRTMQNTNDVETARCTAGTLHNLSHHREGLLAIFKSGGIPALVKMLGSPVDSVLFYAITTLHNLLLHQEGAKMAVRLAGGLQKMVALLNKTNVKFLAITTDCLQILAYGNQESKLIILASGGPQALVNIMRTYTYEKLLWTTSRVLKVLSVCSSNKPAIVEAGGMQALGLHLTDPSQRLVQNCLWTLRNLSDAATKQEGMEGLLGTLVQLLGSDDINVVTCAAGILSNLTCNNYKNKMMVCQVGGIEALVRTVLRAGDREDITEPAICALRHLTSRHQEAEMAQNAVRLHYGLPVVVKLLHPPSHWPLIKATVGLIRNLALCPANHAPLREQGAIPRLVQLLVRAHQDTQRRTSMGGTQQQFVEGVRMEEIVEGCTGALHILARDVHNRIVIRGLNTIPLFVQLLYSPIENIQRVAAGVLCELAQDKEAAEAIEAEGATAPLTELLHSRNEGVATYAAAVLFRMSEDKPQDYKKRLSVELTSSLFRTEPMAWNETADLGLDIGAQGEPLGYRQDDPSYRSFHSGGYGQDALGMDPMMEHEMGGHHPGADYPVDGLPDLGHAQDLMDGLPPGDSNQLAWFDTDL
In short: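 5 nM labelled TCF4 was combined with 100 nM β-catenin at room temperature, then inhibitor was titrated in serial dilutions from 10 nM to 30 uM. Polarization was read at excitation 470 nm, emission 520 nm; displacement lowers the signal. Three independent experiments.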

[2] = system: colon cancer cell line (SW480); format: cell-based
Protocol: (§1) Peptides inhibiting β-catenin cause decreased cell viability in a colon cancer cell line (SW480) and endometriosis lesions excised from a disease animal model. Peptides from libraries described herein are characterized in their effect on cell viability, as measured using a luminescent cell viability assay (Cell Titer-Glo®, Promega, Madison, WI) and expressed as IC50 in Table 5. Peptide inhibitors were tested for their ability to inhibit cellular proliferation across 2 different β-catenin expressing pathogenic cell lines: a colon cancer cell line (SW480) and/or mouse EMS lesion cells derived from mouse model of disease. Both cells lines are naturally known to express high levels of β-catenin. Cell lines were incubated with varying concentrations of peptide concentration and assessed for viability after day 5 and 7 days. The CellTiter-Glo® Luminescent Cell Viability Assay (Promega) is used to detect viable cells. IC50 values are graphed and calculated using Prism software (GraphPad) based on the cell viability readouts. IC50 is used to assess inhibition of cell proliferation by peptide concentration and is used to calculate the inhibitory effect of each peptide across each line. The results are used to assess the therapeutic potency of the peptides. In the SW480 cell line, peptide inhibitors from Family 1 (SEQ ID NO:264) and Family 2 (SEQ ID NO:396) were added daily to the cell growth medium. After 7 days, cell viability was assessed with the Cell-Titer Glo kit (Promega, Madison, WI). […] IC50 was calculated for peptides based on the concentration at which 50% viability was observed (Table 5).

[3] = system: mouse EMS lesion cells; format: cell-based
Protocol: as §1

[4] = target: Wnt-responsive promoter (TCF/LEF); test: Wnt-dependent luciferase reporter assay; format: cell-based, murine
In short: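 Murine 3T3 fibroblasts carrying a TCF/LEF-driven luciferase reporter, stimulated with Wnt3a in the presence of increasing peptide concentrations or vehicle. Luminescence inhibition gave EC50 values in uM.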

[5] = system: non-Wnt responsive cells
[6] = % Viability non-Wnt responsive cells
[7] = system: EMS lesion; conditions: across the subtypes of EMS; cited from earlier work

Molecule: CCCCCCCCCCCCCCCCCC(=O)N[C@@H](Cc1c[nH]c2ccccc12)C(=O)N(C)[C@@H](Cc1c[nH]c2ccccc12)C(=O)N[C@@H](CCC(=O)O)C(=O)NC(C)(CO)C(=O)N[C@H](C(=O)N[C@@H](CC(C)C)C(=O)N[C@@H](CC(=O)O)C(=O)N[C@@H](CCC(=O)O)C(=O)N[C@@H](Cc1c[nH]cn1)C(=O)NC(C)(C(=O)N[C@@H](CCC(N)=O)C(=O)N[C@@H](CCCNC(=N)N)C(=O)N[C@H](C(=O)N[C@@H](Cc1c[nH]c2ccccc12)C(=O)O)C(C)C)C(C)C)[C@@H](C)CC (single isomer, unassigned) [393/500]
- Kd [1]: > 30 µM
- IC50 [2]: 1.7 µM
- IC50 [3]: 5 µM

Molecule: CCCCCCCCCCCCCCCC(=O)N[C@@H](Cc1c[nH]c2ccccc12)C(=O)N(C)[C@@H](Cc1c[nH]c2ccccc12)C(=O)N[C@@H](CCC(=O)O)C(=O)NC(C)(CO)C(=O)N[C@H](C(=O)N[C@@H](CC(C)C)C(=O)N[C@@H](CC(=O)O)C(=O)N[C@@H](CCC(=O)O)C(=O)N[C@@H](Cc1c[nH]cn1)C(=O)NC(C)(C(=O)N[C@@H](CCC(N)=O)C(=O)N[C@@H](CCCNC(=N)N)C(=O)N[C@H](C(=O)N[C@@H](Cc1c[nH]c2ccccc12)C(=O)NCC(=O)O)C(C)C)C(C)C)[C@@H](C)CC (single isomer, unassigned) [compound 396]
- EC50 [4]: 7.5 to 15 µM
- IC50 [2]: 2.9 µM
- IC50 [3]: 15 µM

Molecule: CC[C@H](C)[C@H](NC(=O)[C@H](CC(C)C)NC(=O)[C@H](Cc1ccccc1)NC(=O)[C@H](Cc1c[nH]c2ccccc12)NC(=O)[C@@H](N)CCSC)C(=O)N[C@@H](CS)C(=O)N[C@@H](Cc1ccccc1)C(=O)N[C@@H](Cc1c[nH]c2ccccc12)C(=O)NCC(=O)O [compound 42] (H-MWFLICFWG-OH)
- EC50 [4]: < 7.5 µM
- β-Cat FP Hill slope [1]: 0.96
- Kd [1]: < 0.4 µM
- % Viability non-Wnt responsive cells [5]: 108.69%

Molecule: CC[C@H](C)[C@H](NC(=O)[C@H](CC(C)C)NC(=O)[C@@H](NC(=O)[C@H](Cc1c[nH]c2ccccc12)NC(=O)[C@@H](N)CCSC)[C@@H](C)CC)C(=O)N[C@@H](CO)C(=O)N[C@@H](Cc1ccccc1)C(=O)N[C@@H](Cc1c[nH]c2ccccc12)C(=O)NCC(=O)O [compound 43] (H-MWILISFWG-OH)
- EC50 [4]: < 7.5 µM
- β-Cat FP Hill slope [1]: 0.92
- Kd [1]: 0.4 to 1 µM
- % Viability non-Wnt responsive cells [5]: 98.97%

Molecule: CC[C@H](C)[C@@H]1NC(=O)[C@H](CC(C)C)NC(=O)[C@H](Cc2ccccc2)NC(=O)[C@H](Cc2c[nH]c3ccccc23)NC(=O)[C@@H](N)CCCCNC(=O)CC[C@@H](C(=O)N[C@@H](Cc2c[nH]c3ccccc23)C(=O)NCC(=O)O)NC(=O)[C@H](CS)NC1=O [compound 181] (HELM PEPTIDE1{K.W.F.L.I.C.E.W.G}$PEPTIDE1,PEPTIDE1,1:R3-7:R3$$$V2.0)
- EC50 [4]: > 30 µM
- β-Cat FP Hill slope [1]: 1.15
- % Viability non-Wnt responsive cells [5]: 89.16%

Molecule: CCCC[C@@H]1NC(=O)[C@@H](NC(C)=O)CCCCNC(=O)C[C@@H](C(=O)O)NC(=O)[C@H](Cc2c[nH]c3ccccc23)NC(=O)[C@H](C)NC(=O)[C@H](CC)NC(=O)[C@H]([C@@H](C)CC)NC(=O)[C@H](CC(C)C)NC(=O)[C@H](CC2CCCCC2)NC(=O)[C@H](Cc2c[nH]c3ccccc23)NC1=O [compound 215] (HELM PEPTIDE1{[ac].K.[Nle].W.[Cha].L.I.[Abu].A.W.D}$PEPTIDE1,PEPTIDE1,2:R3-11:R3$$$V2.0)
- EC50 [4]: > 30 µM
- β-Cat FP Hill slope [1]: 1.69
- IC50 [3]: > 30 µM
- viability [6]: 106%

Molecule: CC[C@@H]1NC(=O)[C@H]([C@@H](C)CC)NC(=O)[C@H](CC(C)C)NC(=O)[C@H](CC2CCCCC2)NC(=O)[C@H](Cc2c[nH]c3ccccc23)NC(=O)[C@@H](NC(C)=O)CCCCNC(=O)C[C@@H](C(=O)O)NC(=O)[C@H](Cc2c[nH]c3ccccc23)NC(=O)[C@H](C)NC1=O [compound 261] (HELM PEPTIDE1{[ac].K.W.[Cha].L.I.[Abu].A.W.D}$PEPTIDE1,PEPTIDE1,2:R3-10:R3$$$V2.0)
- EC50 [4]: 7.5 to 15 µM
- β-Cat FP Hill slope [1]: 3
- Kd [1]: 0.4 to 1 µM
- IC50 [2]: 4 µM
- IC50 [3]: 7.7 µM

Molecule: CC[C@@H]1NC(=O)[C@H]([C@@H](C)CC)NC(=O)[C@H](CC(C)C)NC(=O)[C@H](C2CCCCC2)NC(=O)[C@H](Cc2c[nH]c3ccccc23)NC(=O)[C@@H](NC(C)=O)CCCCNC(=O)C[C@@H](C(=O)O)NC(=O)[C@H](Cc2c[nH]c3ccccc23)NC(=O)[C@H](C)NC1=O [compound 262] (HELM PEPTIDE1{[ac].K.W.[O=C([C@@H](N[*:1])C1CCCCC1)[*:2]].L.I.[Abu].A.W.D}$PEPTIDE1,PEPTIDE1,2:R3-10:R3$$$V2.0)
- β-Cat FP Hill slope [1]: 3
- Kd [1]: 0.4 to 1 µM
- IC50 [2]: 5 µM
- IC50 [3]: 26.3 µM

Molecule: CCCCCCCCCCCC(=O)N[C@@H](Cc1c[nH]c2ccccc12)C(=O)N(C)[C@@H](C)C(=O)N[C@@H](CCC(N)=O)C(=O)N[C@H]1CCCCNC(=O)C[C@@H](C(=O)N[C@@H](Cc2c[nH]cn2)C(=O)N[C@H](C(=O)N[C@@H](CCC(N)=O)C(=O)N[C@@H](CCCNC(=N)N)C(=O)N[C@H](C(=O)N[C@@H](Cc2c[nH]c3ccccc23)C(=O)NCC(N)=O)C(C)C)C2CCCCC2)NC(=O)[C@H](CC(=O)O)NC(=O)[C@H](CC(C)C)NC(=O)[C@H]([C@@H](C)CC)NC1=O [compound 432] (HELM PEPTIDE1{[CCCCCCCCCCCC(=O)[*:2]].W.[meA].Q.K.I.L.D.D.H.[O=C([C@@H](N[*:1])C1CCCCC1)[*:2]].Q.R.V.W.G.[am]}$PEPTIDE1,PEPTIDE1,5:R3-9:R3$$$V2.0)
- Kd [1]: < 0.4 µM
- IC50 [2]: 14.9 µM
- IC50 [3]: 0.8 µM

Molecule: O=C(Nc1ccc([N+](=O)[O-])cc1Cl)c1cc(Cl)ccc1O [niclosamide]
- EMS lesion progression [7]: successfully reversed

Molecule: CGP049090
- EMS lesion progression [7]: successfully reversed

Molecule: PKF 115-584
- EMS lesion progression [7]: successfully reversed
